Laboratory results from patent US20210115061A1, “Small-Molecule HIV-1 Capsid Protein Inhibitors and Methods Using Same” (DREXEL UNIVERSITY, priority 2018, published 2021).
“And” between values parts separate entries of the source, which are not always exact repeats. Equal entries are not always repeated. “Also recorded” adds a separate entry of the source. Where two headings read alike, the source gives them in different places.

Columns and labels:
[1] = Metabolic stability in human liver microsomes
Protocol: The compounds were also assessed in human liver microsomal stability assays, plasma protein binding, aqueous solubility (pH 7.4), and evaluation of permeability using the Caco-2 assay.
Analysis in silico of the drug-like properties of the compounds generated in this study is used to drive compound selection. Physicochemical properties (log S, log P, etc.) of all of the new scaffolds are evaluated and compared to PF-74 using StarDrop (Optibrium, UK). The likelihood of metabolism of our new scaffolds, as compared to PF-74, by the common CYP P450 isoforms, was assessed using StarDrop and its P450 module (www dot optibrium dot com/stardrop/stardrop-p450-models dot php). StarDrop's P450 models use quantum mechanical calculations of the activation energy for hydrogen abstraction or direct oxidation, based on the semi-empirical AMi method. These are combined with ligand-based models of the steric and orientation effects of the binding pockets of each P450 isoform on the accessibility of each potential site of metabolism. This total analysis results in predictions of the regioselectivity of metabolism and the lability of each site, a measure of the efficiency of product formation—both important factors governing the rate of metabolism. Compounds of Formula I identified herein that meet the criteria for potency and cytotoxicity are evaluated in in vitro ADME assays (FIG. 8). Specifically, we use microsomal stability and plasma protein binding assessment as reliable indicators of clearance and half-life in vivo. Aqueous solubility is evaluated because low solubility or stability in assay media is detrimental to the development of sound structure-activity-relationships. Low solubility can also hamper our ability to formulate analogs for future in vivo studies. A Caco-2 assay is used to assess cell permeability issues.
T1/2 is the liver microsomal half-life, CLint, CLapp, and CLh are pharmacokinetic clearance parameters.

HIV-1 = assay: microbe, parasite or virus in culture
Protocol: The potency of compounds of Formula I was evaluated via single round and multicycle HIV-1 replication assays. The single round assay is used as the first level of potency testing. […] The multicycle HIV-1 replication assay uses primary isolates and primary human peripheral blood mononuclear cells (PBMCs). Toxicity is evaluated simultaneously with the cells utilized in each assay to allow determination of the therapeutic index (TI=CC50/IC50) of each compound. HIV-1 replication assays are performed in primary PBMCs such as described in Kortager, et al., 2012, J Virol. 86(16):8472-8481, Zentner, et al., 2013, ChemMedChem. 8(3):426-432 and Zentner, et al., 2013, Bioorg Med Chem Lett. 2013; 23(4): 1132-1135.

[2] = Toxicity (CC50) evaluated with the cells utilized in the infection assay; assay type: cell-based; conditions: Table 2
Protocol: (§1) As used herein, the term “CC50” is the half-maximal cytotoxic concentration of a particular compound or agent.
(§2) The potency of compounds of Formula I was evaluated via single round and multicycle HIV-1 replication assays. The single round assay is used as the first level of potency testing. Compounds that display antiviral activity equal to or greater than PF-74 in the primary assay are quantified in the multicycle HIV-1 assays. The multicycle HIV-1 replication assay uses primary isolates and primary human peripheral blood mononuclear cells (PBMCs). Toxicity is evaluated simultaneously with the cells utilized in each assay to allow determination of the therapeutic index (TI=CC50/IC50) of each compound. HIV-1 replication assays are performed in primary PBMCs such as described in Kortager, et al., 2012, J Virol. 86(16):8472-8481, Zentner, et al., 2013, ChemMedChem. 8(3):426-432 and Zentner, et al., 2013, Bioorg Med Chem Lett. 2013; 23(4): 1132-1135.

HIV-1 CA hexamer protein = assay: Direct binding to hexameric HIV-1 CA via SPR; conditions: sensor chip immobilized CA hexamer
Description: A direct binding assay was established using SPR (surface plasmon resonance) (FIGS. 5-7). This assay allows for the confirmation that maintained target specificity is maintained, and the analysis of the kinetic signatures of newly synthesized compounds allows for prioritization of compounds for antiviral testing. […] Therefore, compounds with slower off-rates are prioritized for antiviral testing, as this characteristic should translate to increased potency. Additionally, the interaction of the next-generation compounds with CA proteins from clades A1, A2, B, C, and D (FIG. 11) was quantified. Hexameric versions of these constructs were developed, given their differential assembly properties, compared to the NL4-3 variant. This can be accomplished by modelling of the CA variants and mutation of residues (either A14C/E45C or A42C/T54C) between the N-terminal domains of adjacent subunits. Second, the cross-linked hexamers were prevented from polymerizing further into hyperstable capsid-like structures by mutations (W184A and M185A). The application of this to make hexameric capsomrs was first outlined in Pomillos et al. 2010. J. Mol. Biol. 401(5):985-95. The SPR analysis indicates a compound's potential performance in the therapeutic spectrum testing against other clades in the following sub-aim and provide a facile way in which to rank order compounds for antiviral testing.

[3] = tested on: cells utilized in each assay; assay: Toxicity (CC50) evaluated with the cells utilized in the infection assay; assay type: cell-based; conditions: Table 2
Protocol: as §1, §2

[4] = human liver microsomal stability assay, compared to PF-74
[5] = human, liver microsomes, T1/2, liver microsomal half-life, Table 3
[6] = human, liver microsomes, T1/2, metabolic stability of racemates and (R)/(S) enantiomers, Table 5
[7] = racemates and (R)/(S) enantiomers, Table 4
[8] = liver microsomal half-life, Table 3
[9] = metabolic stability of racemates and (R)/(S) enantiomers, Table 5
[10] = inhibition of HIV-1 in the early stages of replication, Table 2
[11] = human liver microsomes, Table 1

Cc1[nH]c2ccccc2c1CC(=O)NC(Cc1ccccc1)C(=O)N(C)c1ccc2[nH]ncc2c1 (centres unmarked) [Compound C11]
improvement in metabolic stability over PF-74 [1, 4]: 34 fold | microsomal CLint ([1]; human, liver microsomes): 78.7 µL/min/mg | half-life [1, 5]: 18 min | half-life [1, 6]: 17.6 min | CLapp ([1]; liver microsomes, Table 3): 75.866 mL/min/kg | CLh ([1]; liver microsomes, Table 3): 15.828 mL/min/kg | Eh ([1]; liver microsomes, Table 3): 79.1 | k ([1]; liver microsomes, Table 3): 0.03934 | IC50 (HIV-1; Human immunodeficiency virus 1): 0.173 ± 0.058 µM | Therapeutic index (CC50/IC50) (HIV-1; [7]): 2115 | CC50 [2]: 366 ± 29 µM

Cc1[nH]c2ccc(S(=O)(=O)F)cc2c1CC(=O)NC(Cc1ccccc1)C(=O)N(C)c1ccc2cn[nH]c2c1 (centres unmarked) [Compound C13]
IC50 (HIV-1; Human immunodeficiency virus 1, 24 h, read-out: 24 h post-infection IC50): 0.0231 ± 0.00429 µM | IC50 (HIV-1; Human immunodeficiency virus 1, 48 h, read-out: 48 h post-infection IC50): 0.0239 ± 0.00324 µM | IC50 (HIV-1; Human immunodeficiency virus 1, 72 h, read-out: 72 h post-infection IC50): 0.0291 ± 0.00567 µM | binding to HIV-1 CA hexamer (in words) (HIV-1 CA hexamer protein): even more potent binding than (S)-C11

CN(C(=O)C(Cc1ccccc1)NC(=O)Cc1n[nH]c2c(N)cccc12)c1ccccc1 (centres unmarked) [Compound C4]
improvement in metabolic stability over PF-74 [1, 4]: 34 fold and 30 fold | T1/2 [1, 8]: 20 min | CLapp ([1]; liver microsomes, Table 3): 67.126 mL/min/kg | CLh ([1]; liver microsomes, Table 3): 15.409 mL/min/kg | CLint ([1]; liver microsomes, Table 3): 69.6 µL/min/mg | Eh ([1]; liver microsomes, Table 3): 77 | k ([1]; liver microsomes, Table 3): 0.03481 | T1/2 [1, 9]: 20 min | increase in the therapeutic index (CC50/IC50) over PF-74 (HIV-1; compared to PF-74): over 7 fold | IC50 (HIV-1; [10]): 0.0515 ± 0.0184 µM | IC50 (HIV-1; [7]): 0.0515 ± 0.0184 µM | Therapeutic index (CC50/IC50) (HIV-1; [7]): 5515 | CC50 [3]: 284 ± 0.2 µM | binding to HIV-1 CA hexamer (in words) (HIV-1 CA hexamer protein): interacts with the CA hexamer similarly to PF-74; also recorded: higher affinity

CC(C)c1nc2c(n1CC(=O)NC(Cc1ccccc1)C(=O)N(C)c1ccccc1)CCCC2 (centres unmarked) [CX03]
improvement in metabolic stability over PF-74 ([1]; human, microsomes): 4 fold | reduction in potency relative to PF-74 (HIV-1; compared to PF-74): 10 fold | binding to HIV-1 CA hexamer (in words) (HIV-1 CA hexamer protein): relatively low-affinity

CC(=O)CC(c1ccccc1)c1c(O)c2ccccc2oc1=O (centres unmarked) [Warfarin, reference compound]
k ([1]; human): −0.00509

C[C@]12CC[C@H]3[C@@H](CCC4=CC(=O)CC[C@@]43C)[C@@H]1CC[C@@H]2O [Testosterone, reference compound]
CLapp [1, 11]: 74.292 mL/min/kg | Clh [1, 11]: 15.758 mL/min/kg | CLapp ([1]; liver microsomes, Table 3): 74.292 mL/min/kg | CLh ([1]; liver microsomes, Table 3): 15.758 mL/min/kg

Cc1[nH]c2ccccc2c1CC(=O)N[C@@H](Cc1ccccc1)C(=O)N(C)c1ccccc1 [(S)-PF-74, reference compound]
T1/2 ([1]; human, microsomes): 0.5 min | IC50 (HIV-1; [7]): 0.08 ± 0.0057 µM | Therapeutic index (CC50/IC50) (HIV-1; [7]): 3075

Cc1[nH]c2ccccc2c1CC(=O)N[C@H](Cc1ccccc1)C(=O)N(C)c1ccccc1 [(R)-PF-74, reference compound]
T1/2 ([1]; human, microsomes): 0.6 min

Cc1[nH]c2ccccc2c1CC(=O)N[C@@H](Cc1ccccc1)C(=O)N(C)c1ccccc1 [PF-74, reference compound]
CLapp [1, 11]: 2249.427 mL/min/kg | CLint [1, 11]: 2332.7 µL/min/mg | Clh [1, 11]: 19.824 mL/min/kg | Eh [1, 11]: 99.12% | T1/2 [1, 11]: 0.59 min | k [1, 11]: 1.166 | metabolic lability (in words) [1, 11]: highly metabolically labile | T1/2 [1, 8]: 0.6 min | CLapp ([1]; liver microsomes, Table 3): 2249.427 mL/min/kg | CLh ([1]; liver microsomes, Table 3): 19.824 mL/min/kg | CLint ([1]; liver microsomes, Table 3): 2332.7 µL/min/mg | Eh ([1]; liver microsomes, Table 3): 99.12 | k ([1]; liver microsomes, Table 3): 1.166 | T1/2 [1, 9]: 0.6 min | IC50 (HIV-1; [10]): 0.0951 ± 0.0317 µM | IC50 (HIV-1; [7]): 0.0951 ± 0.0317 µM | Therapeutic index (CC50/IC50) (HIV-1; [7]): 768 | CC50 [3]: 73 ± 15 µM | binding to HIV-1 CA hexamer (in words) (HIV-1 CA hexamer protein): higher affinity

CN(C(=O)C(Cc1ccccc1)NC(=O)Cc1n[nH]c2c(N)cccc12)c1ccc2[nH]ncc2c1 (centres unmarked) [Compound C12]
improvement in metabolic stability over PF-74 [1, 4]: 118 fold | microsomal CLint ([1]; human, liver microsomes): 19.5 µL/min/mg | half-life [1, 5]: 71 min | half-life [1, 6]: 71 min | CLapp ([1]; liver microsomes, Table 3): 18.819 mL/min/kg | CLh ([1]; liver microsomes, Table 3): 9.696 mL/min/kg | Eh ([1]; liver microsomes, Table 3): 48.5 | k ([1]; liver microsomes, Table 3): 0.00976 | IC50 (HIV-1; Human immunodeficiency virus 1): 0.302 ± 0.167 µM | Therapeutic index (CC50/IC50) (HIV-1; [7]): 606 | CC50 [2]: 183 ± 15 µM
